The target of experiment [1] is p38α (Homo sapiens, UniProt Q16539). Put plainly: p38 in-vitro HTRF enzyme assay. As to conditions: IC50 value ranges. The class given is biochemical. The procedure:
p38 In-Vitro HTRF Enzyme Assay
The compounds of the invention can be tested for their respective affinities for the p38 protein using a conventional p38 in-vitro enzyme activity assay. For example, a P38-alpha HTRF assay may be used to measure the protein's in-vitro phosphorylation activity, and the data analyzed using time resolved fluorimetry techniques (FRET). A p38 HTRF assay is as follows. The kinase reaction buffer for p38α, p38β, p38δ and p38γ HTRF assays consists of 50 mM Tris-pH 7.5, 5 mM MgCl2, 0.1 mg/mL BSA, 100 μM Na3VO4 and 0.5 mM DTT. The HTRF detection buffer contains 100 mM HEPES-pH 7.5, 100 mM NaCl, 0.1% BSA, 0.05% Tween-20, and 10 mM EDTA. Each compound was dissolved in 100% DMSO and serially diluted (3 fold, 10 point) in a polypropylene 96-well microtiter plate (drug plate). The final starting concentration of the compound in the p38α and p38β enzymatic assays was about 1 μM. The final starting concentration of each compound in the p38δ and p38γ enzymatic assays was about 10 μM. The p38α, p38β, p38δ and p38γ kinase reactions were carried out in a polypropylene 96-well black round bottom assay plate in total volume of 30 μL kinase reaction buffer. Appropriate concentration of purified and activated enzyme (recombinant human) was mixed with indicated concentration of ATP and 100 nM GST-ATF2-Avitag, in the presence or absence (HI control) of each compound. In the absence of enzyme, the background was measured as LO control. HI controls and LO controls contained only DMSO. The reaction was allowed to incubate for 1 hour at RT. […] After 60 minutes incubation at room temperature, the assay plate was read in a Discovery Plate Reader. The wells were excited with coherent 320 nm light and the ratio of delayed ([…] post excitation) emissions at […] (native europium fluorescence) and 665 nm (europium fluorescence transferred to allophycocyanin—an index of substrate phosphorylation) was determined (Park et al, 1999). The resulting data was analyzed by taking the proportion of substrate phosphorylated in the kinase reaction in the presence of each individual compound and comparing it with that phosphorylated in the presence of DMSO vehicle alone (HI control). The data was calculated using the formula: % control (POC)=(compound−average LO)/(average HI−average LO)*100. Data (consisting of POC and inhibitor concentration in μM) was fitted to a 4-parameter equation (y=A+((B−A)/(1+((x/C)^D))), where A is the minimum y (POC) value, B is the maximum y (POC), C is the x (compound concentration) at the point of inflection and D is the slope factor, using a Levenburg-Marquardt non-linear regression algorithm. The inhibition constant (Ki) of the inhibitor was estimated from the IC50 (compound concentration at the point of inflection C) using the Cheng-Prussof equation: Ki=IC50/(1+S/Km), where S is the ATP substrate concentration, and Km is the Michaelis constant for ATP as determined experimentally. All results were expressed as the mean±the standard error of the mean. Data acquisition and non-linear regression algorithms were performed using Activity Base v5.2 and XLfit software v4.1 respectively. Additional assay information may be obtained in Park Y W, Cummings R T, Wu L, et al. Homogeneous Proximity Tyrosine Kinase Assays Scintillation Proximity Assay versus Homogeneous Time-Resolved Fluorescence. Analytical Biochemistry. 1999; 269: 94-104.

The subject of experiment [2] is THP1 cells. In words: Lipopolysaccharide-activated THP1 cell TNF production assay. As to conditions: LPS-induced TNF-α production in THP1 cells. The class given is cell-based, human. The procedure: Lipopolysaccharide-Activated THP1 Cell TNF Production Assay
THP1 cells are resuspended in fresh THP1 media (RPMI 1640, 10% heat-inactivated FBS, 1×PGS, 1×NEAA, plus 30 μM βME) at a concentration of 1E6/mL. One hundred microliters of cells per well are plated in a polystyrene 96-well tissue culture. One microgram per mL of bacterial LPS is prepared in THP1 media and is transferred to the wells. Test compounds are dissolved in 100% DMSO and are serially diluted 3-fold in a polypropylene 96-well microtiter plate (drug plate). HI control and LO control wells contain only DMSO. One microliter of test compound from the drug plate followed by 10 μL of LPS are transferred to the cell plate. The treated cells are induced to synthesize and secrete TNF-α at 37° C. for 3 h. Forty microliters of conditioned media are transferred to a 96-well polypropylene plate containing 110 μL of ECL buffer (50 mM Tris-HCl pH 8.0, 100 mM NaCl, 0.05% Tween 20, 0.05% NaN3 and 1% FBS) supplemented with 0.44 nM MAB610 monoclonal Ab (R&D Systems), 0.34 nM ruthenylated AF210NA polyclonal Ab (R&D Systems) and 44 μg/mL sheep anti-mouse M280 Dynabeads (Dynal). After a 2 h incubation at room temperature with shaking, the reaction is read on the ECL M8 Instrument (IGEN Inc.). A low voltage is applied to the ruthenylated TNF-α immune complexes, which in the presence of TPA (the active component in Origlo), results in a cyclical redox reaction generating light at […]. The amount of secreted TNF-α in the presence of compound compared with that in the presence of DMSO vehicle alone (HI control) is calculated using the formula: % control (POC)=(cpd−average LO)/(average HI−average LO)*100. Data (consisting of POC and inhibitor concentration in μM) is fitted to a 4-parameter equation (y=A+((B−A)/(1+((x/C)^D))), where A is the minimum y (POC) value, B is the maximum y (POC), C is the x (cpd concentration) at the point of inflection and D is the slope factor) using a Levenburg-Marquardt non-linear regression algorithm.

For experiment [3], the system named is monocytes. Put plainly: Lipopolysaccharide-activated monocyte TNF production assay (LPS induced TNF release). The experiment is classed as cell-based, human. As to conditions: LPS induced TNF release from monocytes, read-out: LPS induced TNFa. The procedure: Lipopolysaccharide-Activated Monocyte TNF Production Assay
Test compounds were evaluated in vitro for the ability to inhibit the production of TNF by monocytes activated with bacterial lipopolysaccharide (LPS). Fresh residual source leukocytes (a byproduct of plateletpheresis) were obtained from a local blood bank, and peripheral blood mononuclear cells (PBMCs) were isolated by density gradient centrifugation on Ficol-Paque Plus (Pharmacia). PBMCs were suspended at 2×10^6/mL in DMEM supplemented to contain 2% FCS, 10 mM, 0.3 mg/mL […], 100 U/mL penicillin G and […] streptomycin sulfate (complete media). Cells were plated into Falcon flat bottom, 96 well culture plates (200 μL/well) and cultured overnight at 37° C. and 6% CO2. Non-adherent cells were removed by washing with 200 μl/well of fresh medium. Wells containing adherent cells (˜70% monocytes) were replenished with 100 μL of fresh medium.
Preparation of Test Compound Stock Solutions
Test compounds were dissolved in […]. Compound stock solutions were prepared to an initial concentration of […]. Stocks were diluted initially to […] in complete media. Nine two-fold serial dilutions of each compound were then prepared in complete medium.
Treatment of Cells with Test Compounds and Activation of TNF Production with Lipopolysaccharide
One hundred microliters of each test compound dilution were added to microtiter wells containing adherent monocytes and 100 μL complete medium. Monocytes were cultured with test compounds for 60 min at which time 25 μL of complete medium containing 30 ng/mL lipopolysaccharide from E. coli K532 were added to each well. Cells were cultured an additional 4 hrs. Culture supernatants were then removed and TNF presence in the supernatants was quantified using an ELISA.
Flat bottom, 96 well Corning High Binding ELISA plates were coated overnight (4° C.) with 150 μL/well of 3 μg/mL murine anti-human TNF-α MAb (R&D Systems #MAB210). Wells were then blocked for 1 h at room temperature with 200 μL/well of CaCl2-free ELISA buffer supplemented to contain 20 mg/mL BSA (standard ELISA buffer: […], 150 mM NaCl, 2 mM CaCl2, 0.15 mM thimerosal, pH 7.4). Plates were washed and replenished with 100 μL of test supernatants (diluted 1:3) or standards. Standards consisted of eleven 1.5-fold serial dilutions from a stock of 1 ng/mL recombinant human TNF (R&D Systems). Plates were incubated at room temperature for 1 h on orbital shaker (300 rpm), washed and replenished with 100 μL/well of 0.5 μg/mL goat anti-human TNF-α (R&D systems #AB-210-NA) biotinylated at a 4:1 ratio. Plates were incubated for 40 min, washed and replenished with 100 μL/well of alkaline phosphatase-conjugated streptavidin (Jackson ImmunoResearch #016-050-084) at 0.02 μg/mL. Plates were incubated 30 min, washed and replenished with 200 μL/well of 1 mg/mL of p-nitrophenyl phosphate.
Standard curve data were fit to a second order polynomial and unknown TNF-α concentrations determined from their OD by solving this equation for concentration. TNF concentrations were then plotted vs. test compound concentration using a second order polynomial. This equation was then used to calculate the concentration of test compounds causing a 50% reduction in TNF production.

pIC50: −log10 of the molar value. Where two headings read alike, the source gives them in different places.

Chain of p38α (Q16539 whole entry): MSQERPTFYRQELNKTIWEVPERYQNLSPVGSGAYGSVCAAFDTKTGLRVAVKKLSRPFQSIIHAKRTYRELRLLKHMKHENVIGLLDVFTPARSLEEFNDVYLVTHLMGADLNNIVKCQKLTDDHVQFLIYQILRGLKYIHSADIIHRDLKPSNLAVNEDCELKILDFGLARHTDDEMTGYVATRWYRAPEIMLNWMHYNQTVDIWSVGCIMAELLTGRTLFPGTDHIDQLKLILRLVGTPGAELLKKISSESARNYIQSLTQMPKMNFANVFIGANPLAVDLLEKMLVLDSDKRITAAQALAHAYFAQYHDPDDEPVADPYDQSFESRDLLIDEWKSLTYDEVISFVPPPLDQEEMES

As to “4-methyl-3-(3-(4-methyl-1,3-oxazol-5-yl)[1,2,4]triazolo[4,3-a]pyridin-7-yl)-N-(1-methyl-1H-pyrazol-5-yl)benzamide [Example 58]”, the figures for the pIC50 in experiment [1], in experiment [2] (read-out: THP-1 cell assay) and in experiment [3] were 7.00 to 7.60, 6.00 to 6.60 and 6.00 to 6.60, respectively.

With `Cc1ccc(C(=O)NC2CC2)cc1-c1ccn2c(N)nnc2c1` [Example 1, 3-(3-amino[1,2,4]triazolo[4,3-a]pyridin-7-yl)-N-cyclopropyl-4-methylbenzamide], the pIC50 is 6.00 to 6.60 in experiment [1]; 5.30 to 6.00 in experiment [2] (Homo sapiens, THP-1); 5.30 to 6.00 in experiment [3] (Homo sapiens, Monocyte).

Regarding `Cc1ccc(C(=O)NC2CC2)cc1-c1ccn2c(-c3ccccc3F)nnc2c1` [Example 2, N-cyclopropyl-3-(3-(2-fluorophenyl)[1,2,4]triazolo[4,3-a]pyridin-7-yl)-4-methylbenzamide], the pIC50 was greater than 7.60 in experiment [1]; 7.00 to 7.60 in experiment [2] (Homo sapiens, THP-1); 7.00 to 7.60 in experiment [3] (Homo sapiens, Monocyte).

As for `Cc1ccc(C(=O)Nc2ccnn2C)cc1-c1ccn2c(-c3ccccc3Cl)nnc2c1` [Example 3, 3-(3-(2-chlorophenyl)[1,2,4]triazolo[4,3-a]pyridin-7-yl)-4-methyl-N-(1-methyl-1H-pyrazol-5-yl)benzamide], the pIC50 is greater than 7.60 in experiment [1]; greater than 7.60 in experiment [2] (Homo sapiens, THP-1); greater than 7.60 in experiment [3] (Homo sapiens, Monocyte).

For `Cc1ccc(C(=O)Nc2ccnn2C)cc1-c1ccn2c(-c3cnccc3C(F)(F)F)ncc2c1` [Example 4, 4-methyl-N-(1-methyl-1H-pyrazol-5-yl)-3-(3-(4-(trifluoromethyl)-3-pyridinyl)imidazo[1,5-a]pyridin-7-yl)benzamide], the pIC50 in experiment [1] is greater than 7.60; in experiment [2] (Homo sapiens, THP-1), 7.00 to 7.60; in experiment [3] (Homo sapiens, Monocyte) it was 7.00 to 7.60.

Regarding `Cc1ccc(C(=O)NC2CC2)cc1-c1cc(C)n2c(-c3ccccc3Cl)nnc2c1` [Example 6, 3-(3-(2-chlorophenyl)-5-methyl[1,2,4]triazolo[4,3-a]pyridin-7-yl)-N-cyclopropyl-4-methylbenzamide], the pIC50 in experiment [1] is greater than 7.60; in experiment [2] (Homo sapiens, THP-1), greater than 7.60; in experiment [3] (Homo sapiens, Monocyte), 7.00 to 7.60.

With `Cc1ccc(C(=O)NC2CC2)cc1-c1ccn2c(NC(C)C)nnc2c1` [Example 7, N-cyclopropyl-4-methyl-3-(3-((1-methylethyl)amino)[1,2,4]triazolo[4,3-a]pyridin-7-yl)benzamide], the pIC50 was greater than 7.60 in experiment [1]; 6.60 to 7.00 in experiment [2] (Homo sapiens, THP-1); 6.60 to 7.00 in experiment [3] (Homo sapiens, Monocyte).

With `Cc1ccc(C(=O)Nc2ccnn2C)cc1-c1ccn2c(C3(C(F)(F)F)CC3)nnc2c1` [Example 20, 4-methyl-N-(1-methyl-1H-pyrazol-5-yl)-3-(3-(1-(trifluoromethyl)cyclopropyl)[1,2,4]triazolo[4,3-a]pyridin-7-yl)benzamide], the pIC50 in experiment [1] is greater than 7.60; in experiment [2] (Homo sapiens, THP-1) it was greater than 7.60.

With `Cc1ccc(C(=O)NC2CC2)cc1-c1ccn2c(C3(C(F)(F)F)CC3)nnc2c1` [Example 21, N-cyclopropyl-4-methyl-3-(3-(1-(trifluoromethyl)cyclopropyl)[1,2,4]triazolo[4,3-a]pyridin-7-yl)benzamide], the pIC50 in experiment [1] is greater than 7.60; in experiment [2] (Homo sapiens, THP-1), greater than 7.60.

As to `Cc1ccc(C(=O)NC2CC2)cc1-c1ccn2c(-c3ccc(S(C)(=O)=O)cc3Cl)nnc2c1` [Example 26, 3-(3-(2-chloro-4-(methylsulfonyl)phenyl)[1,2,4]triazolo[4,3-a]pyridin-7-yl)-N-cyclopropyl-4-methylbenzamide], the pIC50 in experiment [1] is greater than 7.60; in experiment [2] (Homo sapiens, THP-1), 6.60 to 7.00.

As to `Cc1ccc(C(=O)NC2CC2)cc1-c1ccn2c(C(C)C)nnc2c1` [Example 27, N-cyclopropyl-4-methyl-3-(3-(1-methylethyl)[1,2,4]triazolo[4,3-a]pyridin-7-yl)benzamide], the pIC50 in experiment [1] was greater than 7.60; in experiment [2] (Homo sapiens, THP-1) it was 7.00 to 7.60.

These data come from US7700593B2, “Imidazo- and triazolo-pyridine compounds and methods of use thereof” (Amgen Inc., priority 2006, dated 2010).
